Measured values: patent US12427134B2, “Methods of reducing the risk of cardiovascular events in a subject with atrial fibrillation and/or atrial flutter” (priority 2019, dated 2025)

Tests used:
Format in all cases: in vivo, human
[1] = tested on: hypertriglyceridemic patients with cardiovascular disease or at high risk for cardiovascular disease; test: REDUCE-IT: fasting lipid, lipoprotein and inflammatory biomarkers and serum EPA, change from baseline; settings: for Approximated LDL-C (Hopkins), median difference from placebo in percent change from baseline: Hodges-Lehmann estimate
Experimental: Fasting Lipid Profile: The fasting lipid panel included: TG, TC, LDL-C, HDL-C, non-HDL-C, and VLDL-C. At all visits, LDL-C was calculated using the Friedewald equation. At Visit 1 and Visit 1.1 direct LDL-C were used if at the same visit TG >400 mg/dL (4.52 mmol/L). These LDL-C values were used for the evaluation of the LDL-C inclusion criterion (LDL-C qualifying measurements for randomization) and for the assessment of changes in the statin therapy when LDL-C was not at goal. […] In addition, irrespective of the TG levels, at Visit 2 (0 Months of Follow-up, baseline) and at Visit 4 (12 Months of Follow-up), LDL-C were measured by preparative ultracentrifugation. These preparative ultracentrifugation LDL-C measurements were used in the statistical analysis including the calculation of the percent change from baseline (1 year versus baseline). Hopkins LDL-C was calculated for each visit.
Biomarkers Assays: The biomarker assays included: hsCRP, Apo B and hsTnT.
The fasting lipid panel was tested at Screening (Visit 1 or Visit 1.1), Randomization visit (Visit 2; Day 0), Visit 3 (Day 120; ˜4 Months) and all other follow-up visits including the last visit. For change from baseline to 1 year preparative ultracentrifugation measurements for LDL-C were analyzed, unless this value was missing. If the LDL-C preparative ultracentrifugation values were missing, then another LDL-C value was used, with prioritization of values obtained from LDL-C Direct measurements, followed by LDL-C derived by the Friedewald calculation (only for subjects with TG <400 mg/dL), and finally LDL-C derived using the calculation published by Hopkins University investigators (Martin S S, Blaha M J, Elshazly M B, et al. Comparison of a novel method vs the Friedewald equation for estimating low-density lipoprotein cholesterol levels from the standard lipid profile. JAMA. 2013; 310:2061-8.). In addition, change from baseline to day 120 in LDL-C utilizing Friedewald's and Hopkins methods was analyzed, using the arithmetic mean of LDL-C obtained at Visit 2 (Day 0) and the preceding Visit 1 (or Visit 1.1). If one of these values was missing, the single available LDL-C value was used. LDL-C according to Hopkins was calculated at each visit.
The randomization visit was considered Baseline. If a baseline value was not available from the randomization visit, then the latest screening value was used. For measurements of lipids, lipoproteins and inflammatory markers, the change and the percent change were summarized at each visit. Since these biomarkers are typically not normally distributed, the Wilcoxon rank-sum test was used for treatment comparisons of the percent change from baseline, and medians and quartiles were provided for each treatment group. The medians of the differences between the treatment groups and 95% CIs were estimated with the Hodges-Lehmann method. In addition, shift-tables were generated as appropriate.

[2] = tested on: patients receiving icosapent ethyl therapy; test: Postmarket safety analysis of icosapent ethyl (VASCEPA)
Text: Over 320,000 patients are currently receiving icosapent ethyl (referenced interchangeably with AMR101 or VASCEPA®) therapy. With over 7 years of postmarket experience, there have been no signals necessitating a label change and no actions taken for safety reasons. Of the patients undergoing treatment with icosapent ethyl, a total of 1,204 unique adverse events (AEs) have been reported. However, there have been no signals of atrial fibrillation and flutter identified in the postmarket reports.

[3] = tested on: hypertriglyceridemic patients with cardiovascular disease or at high risk for cardiovascular disease; test: REDUCE-IT: post hoc analyses of primary + risk and key secondary + risk composite endpoints (adding atrial fibrillation/flutter and bleeding); settings: ITT
[4] = Last Visit, vs placebo, ITT population
[5] = baseline to the last study value

CC/C=C\C/C=C\C/C=C\C/C=C\C/C=C\CCCC(=O)OCC [AMR101, eicosapentaenoic acid ethyl ester] was tested, and the “Apo B Median Observed Value” ([1]; Baseline, ITT population) was 82.0 mg/dL, the “LDL-C Hopkins Median Observed Value” ([1]; Baseline, ITT population) was 85.8 mg/dL and the “LDL-C derived Median Observed Value” ([1]; Baseline, ITT population) was 74.0. The “Non-HDL-C Median Observed Value” ([1]; Baseline, ITT population) was 118.0 mg/dL, the “Triglycerides Median Observed Value” ([1]; Baseline, ITT population) was 216.5 mg/dL and the “hsCRP Median Observed Value” ([1]; Baseline, ITT population) was 2.2 mg/L. The “LDL-C derived Median Observed Value” ([1]; Last Visit, ITT population) was 77.0, the “Triglycerides Median Absolute Change from Baseline” value ([1]; Last Visit, ITT population) was 45.0 mg/dL and the “LDL-C derived Between Group Difference Median % Change from Baseline” value [1, 4] was −6.6%. The “LDL-C derived Between Group Difference Median Absolute Change from Baseline” value [1, 4] was −5.0, the “HDL-C, median” value ([1]; Year 1) was 39.0 mg/dL and the “LDL-C, median” value ([1]; Year 1) was 77.0 mg/dL. The “HDL-C, median between group difference, % change from baseline” value ([1]; Year 1, vs placebo) was −6.3%, the “HDL-C, median between group difference, absolute change from baseline” value ([1]; Year 1, vs placebo) was -2.5 mg/dL and the “LDL-C, median between group difference, % change from baseline” value ([1]; Year 1, vs placebo) was −6.6%. For the same molecule, the “LDL-C, median between group difference, absolute change from baseline” value ([1]; Year 1, vs placebo) was -5.0 mg/dL, the “Triglycerides Between Group Difference Median Absolute Change from Baseline” value ([1]; Year 1, vs placebo, ITT population) was 44.5 mg/dL and the “Non-HDL-C Median Observed Value” ([1]; Year 2, ITT population) was 113.0 mg/dL. The “Triglycerides Between Group Difference Median % Change from Baseline” value ([1]; Year 2, vs placebo, ITT population) was −19.7%, the “HDL-C Median Observed Value” ([1]; Year 3, ITT population) was 40.0 mg/dL and the “Non-HDL-C Median Absolute Change from Baseline” value ([1]; Year 3, ITT population) was 4.8 mg/dL. The “Non-HDL-C Median % Change from Baseline” value ([1]; Year 4, ITT population) was 4.2%, the “Non-HDL-C Median % Change from Baseline” value ([1]; Year 5, ITT population) was 4.4% and the “Approximated LDL-C (Hopkins), median change from baseline” value ([1]; baseline to one year) was -1.1 mg/dL. For the same molecule, the “Approximated LDL-C (Hopkins), median percent change from baseline” value ([1]; baseline to one year) was −1.2%, the “Triglycerides, median change from baseline” value ([1]; baseline to one year) was -39.0 mg/dL and the “Triglycerides, median percent change from baseline” value ([1]; baseline to one year) was −18.3%. The “Approximated LDL-C (Hopkins), median change from baseline” value [1, 5] was -1.0 mg/dL, the “Approximated LDL-C (Hopkins), median percent change from baseline” value [1, 5] was −1.2% and the “Triglycerides, median change from baseline” value [1, 5] was -45.0 mg/dL. For the same molecule, the “Triglycerides, median percent change from baseline” value [1, 5] was −21.6%, the “Approximated LDL-C (Hopkins), median difference from placebo in percent change from baseline” value ([1]; last study value) was −7.4% and the “Triglycerides, greater reduction than in the placebo group” value ([1]; one year) was 44.5 mg/dL. The “Triglycerides, median reduction from baseline greater than in the placebo group” value ([1]; one year, Hodges-Lehmann approach) was 19.7%, the “Approximated LDL-C (Hopkins), median difference from placebo in percent change from baseline” value ([1]; one year) was −11.4% and the “Individual serious AEs” value ([2]; human, in vivo) was 69. For the same molecule, the “Serious and unexpected AE reports” value ([2]; human, in vivo) was 48, the “Unique adverse events (AEs) reported” value ([2]; human, in vivo) was 1,204 and the “Unique nonserious AEs” value ([2]; human, in vivo) was 1,156. The “Reports with fatal outcomes” value ([2]; postmarket) was “Four”, the “AFib/AFlutter + MI + Stroke + Cardiac Arrest + Sudden Cardiac Death, Rate/1000 pt yrs” value [3] was 29.4 /1000 pt yrs and the “Key Secondary + AFib/AFlutter, Rate/1000 pt yrs” value [3] was 33.1 /1000 pt yrs. The “Key Secondary + Serious Bleeding, Rate/1000 pt yrs” value [3] was 32.1 /1000 pt yrs, the “Primary + AFib/AFlutter + Serious Bleeding, Rate/1000 pt yrs” value [3] was 53.5 /1000 pt yrs and the “Primary + AFib/AFlutter, Rate/1000 pt yrs” value [3] was 49.0 /1000 pt yrs. The “Primary + Serious Bleeding, Rate/1000 pt yrs” value [3] was 48.2 /1000 pt yrs, the “AFib/AFlutter + MI + Stroke + Cardiac Arrest + Sudden Cardiac Death, subjects with event” value ([3]; N = 4089) was 491 and the “AFib/AFlutter + MI + Stroke + Cardiac Arrest + Sudden Cardiac Death, subjects with event (%)” value ([3]; N = 4089) was 12.0%. For the same molecule, the “Key Secondary + AFib/AFlutter + Serious Bleeding, subjects with event” value ([3]; N = 4089) was 625, the “Key Secondary + AFib/AFlutter, subjects with event” value ([3]; N = 4089) was 552 and the “Key Secondary + AFib/AFlutter, subjects with event (%)” value ([3]; N = 4089) was 13.5%. For the same molecule, the “Key Secondary + Serious Bleeding, subjects with event” value ([3]; N = 4089) was 539, the “Key Secondary + Serious Bleeding, subjects with event (%)” value ([3]; N = 4089) was 13.2% and the “Primary + AFib/AFlutter + Serious Bleeding, subjects with event” value ([3]; N = 4089) was 850. The “Primary + AFib/AFlutter + Serious Bleeding, subjects with event (%)” value ([3]; N = 4089) was 20.8%, the “Primary + AFib/AFlutter, subjects with event” value ([3]; N = 4089) was 785 and the “Primary + AFib/AFlutter, subjects with event (%)” value ([3]; N = 4089) was 19.2%. The “Primary + Serious Bleeding, subjects with event” value ([3]; N = 4089) was 775, the “Primary + Serious Bleeding, subjects with event (%)” value ([3]; N = 4089) was 19.0% and the “AFib/AFlutter + MI + Stroke + Cardiac Arrest + Sudden Cardiac Death, HR (95% CI)” value ([3]; vs placebo) was 0.789 (0.701, 0.889). The “Key Secondary + AFib/AFlutter + Serious Bleeding, HR (95% CI)” value ([3]; vs placebo) was 0.855 (0.768, 0.952), the “Key Secondary + AFib/AFlutter, HR (95% CI)” value ([3]; vs placebo) was 0.818 (0.731, 0.916) and the “Key Secondary + Serious Bleeding, HR (95% CI)” value ([3]; vs placebo) was 0.789 (0.704, 0.884). For the same molecule, the “Primary + AFib/AFlutter + Serious Bleeding, HR (95% CI)” value ([3]; vs placebo) was 0.830 (0.757, 0.910), the “Primary + AFib/AFlutter, HR (95% CI)” value ([3]; vs placebo) was 0.803 (0.731, 0.883) and the “Primary + Serious Bleeding, HR (95% CI)” value ([3]; vs placebo) was 0.785 (0.714, 0.863).
